Data from patent publication US10526316B2, “Quinoxaline and pyridopyrazine derivatives as PI3Kβ inhibitors” (Janssen Pharmaceutica NV, priority 2015, dated 2020).
Read-outs that look alike come from different tables or passages of the source.

Experiments:
[1] = system: Akt phosphorylated at Ser473 in PC-3 cells; experiment: Cellular assay: phosphorylation of Akt at Ser473 in PC-3 cells (MSD ELISA); assay type: cell-based; settings: PC-3 cells, 60 min compound incubation, MSD ELISA, read-out: IC50 pAkt_S473
In short: (§1)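 Phospho-Akt in whole-cell lysates is quantified by electrochemiluminescent immunoassay using phospho-site capture and total-Akt detection antibodies.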

kinase enzymes [2] = molecular target: T1, kinase enzymes (Homo sapiens, UniProt P42345); experiment: Enzyme binding assay (KINOMEscan, DiscoveRx), further kinases of Table A; settings: MTOR_h
T1 construct: purchased DiscoveRx Corporation, San Diego (contract service, KINOMEscan)
In short: (§2)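 KINOMEscan readout; values are kinase binding affinities.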

kinase enzymes [3] = molecular target: T2, kinase enzymes (Homo sapiens, UniProt P42336); experiment: as above; settings: PIK3Cα_h
T2 construct: purchased DiscoveRx Corporation, San Diego (contract service, KINOMEscan)
In short: as §2

kinase enzymes [4] = molecular target: T3, kinase enzymes (Homo sapiens, UniProt P48736); experiment: as above; settings: PIK3Cγ_h
T3 construct: purchased DiscoveRx Corporation, San Diego (contract service, KINOMEscan)
In short: as §2

PI3Kδ = molecular target: T4, PI3Kδ (Homo sapiens, UniProt O00329); experiment: Enzyme binding assay (KINOMEscan, DiscoveRx); settings: PIK3Cδ_h
T4 construct: purchased DiscoveRx Corporation, San Diego (contract service, KINOMEscan)
T4 sequence (O00329 1-1044): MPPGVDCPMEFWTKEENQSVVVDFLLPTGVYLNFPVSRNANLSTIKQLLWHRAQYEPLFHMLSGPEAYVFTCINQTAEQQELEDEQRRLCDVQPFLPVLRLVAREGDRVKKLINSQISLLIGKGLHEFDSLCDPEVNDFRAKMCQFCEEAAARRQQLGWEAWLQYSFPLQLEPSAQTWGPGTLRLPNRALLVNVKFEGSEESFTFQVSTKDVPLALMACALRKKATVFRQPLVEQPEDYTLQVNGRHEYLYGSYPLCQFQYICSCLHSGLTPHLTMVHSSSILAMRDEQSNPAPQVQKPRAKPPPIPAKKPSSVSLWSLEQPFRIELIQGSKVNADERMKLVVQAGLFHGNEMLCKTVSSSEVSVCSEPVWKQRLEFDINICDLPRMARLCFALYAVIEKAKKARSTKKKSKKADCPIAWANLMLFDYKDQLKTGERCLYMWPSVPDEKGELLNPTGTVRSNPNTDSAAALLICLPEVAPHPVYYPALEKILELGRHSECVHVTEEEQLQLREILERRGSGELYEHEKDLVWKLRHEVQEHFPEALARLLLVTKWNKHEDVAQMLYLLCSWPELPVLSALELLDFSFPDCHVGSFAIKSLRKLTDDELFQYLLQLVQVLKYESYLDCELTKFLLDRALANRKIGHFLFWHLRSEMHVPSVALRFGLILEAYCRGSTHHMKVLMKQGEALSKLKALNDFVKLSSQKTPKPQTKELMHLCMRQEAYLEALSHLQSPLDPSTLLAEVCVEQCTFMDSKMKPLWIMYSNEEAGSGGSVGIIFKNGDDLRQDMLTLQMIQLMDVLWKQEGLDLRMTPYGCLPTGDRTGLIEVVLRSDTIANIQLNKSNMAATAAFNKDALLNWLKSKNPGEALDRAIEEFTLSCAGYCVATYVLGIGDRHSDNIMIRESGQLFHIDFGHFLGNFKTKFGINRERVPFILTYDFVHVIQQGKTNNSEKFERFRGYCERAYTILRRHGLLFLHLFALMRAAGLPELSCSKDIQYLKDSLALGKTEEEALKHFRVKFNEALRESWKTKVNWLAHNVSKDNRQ
In short: as §2

PI3Kβ = molecular target: T5, PI3Kβ (Homo sapiens, UniProt P42338); experiment: Enzyme binding assay (KINOMEscan, DiscoveRx); settings: PIK3Cβ_h, read-out: Kd PIK3Cβ_h
T5 construct: purchased DiscoveRx Corporation, San Diego (contract service, KINOMEscan)
In short: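 KINOMEscan binding platform; read-out is the inhibitor binding constant Kd (nM).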

[5] = system: Akt phosphorylated at Thr308 in PC-3 cells; experiment: Cellular assay: phosphorylation of Akt at Thr308 in PC-3 cells (MSD ELISA); assay type: cell-based; settings: PC-3 cells, 60 min compound incubation, MSD ELISA, read-out: IC50 pAkt_Thr308
In short: as §1

T5 sequence (P42338 whole entry): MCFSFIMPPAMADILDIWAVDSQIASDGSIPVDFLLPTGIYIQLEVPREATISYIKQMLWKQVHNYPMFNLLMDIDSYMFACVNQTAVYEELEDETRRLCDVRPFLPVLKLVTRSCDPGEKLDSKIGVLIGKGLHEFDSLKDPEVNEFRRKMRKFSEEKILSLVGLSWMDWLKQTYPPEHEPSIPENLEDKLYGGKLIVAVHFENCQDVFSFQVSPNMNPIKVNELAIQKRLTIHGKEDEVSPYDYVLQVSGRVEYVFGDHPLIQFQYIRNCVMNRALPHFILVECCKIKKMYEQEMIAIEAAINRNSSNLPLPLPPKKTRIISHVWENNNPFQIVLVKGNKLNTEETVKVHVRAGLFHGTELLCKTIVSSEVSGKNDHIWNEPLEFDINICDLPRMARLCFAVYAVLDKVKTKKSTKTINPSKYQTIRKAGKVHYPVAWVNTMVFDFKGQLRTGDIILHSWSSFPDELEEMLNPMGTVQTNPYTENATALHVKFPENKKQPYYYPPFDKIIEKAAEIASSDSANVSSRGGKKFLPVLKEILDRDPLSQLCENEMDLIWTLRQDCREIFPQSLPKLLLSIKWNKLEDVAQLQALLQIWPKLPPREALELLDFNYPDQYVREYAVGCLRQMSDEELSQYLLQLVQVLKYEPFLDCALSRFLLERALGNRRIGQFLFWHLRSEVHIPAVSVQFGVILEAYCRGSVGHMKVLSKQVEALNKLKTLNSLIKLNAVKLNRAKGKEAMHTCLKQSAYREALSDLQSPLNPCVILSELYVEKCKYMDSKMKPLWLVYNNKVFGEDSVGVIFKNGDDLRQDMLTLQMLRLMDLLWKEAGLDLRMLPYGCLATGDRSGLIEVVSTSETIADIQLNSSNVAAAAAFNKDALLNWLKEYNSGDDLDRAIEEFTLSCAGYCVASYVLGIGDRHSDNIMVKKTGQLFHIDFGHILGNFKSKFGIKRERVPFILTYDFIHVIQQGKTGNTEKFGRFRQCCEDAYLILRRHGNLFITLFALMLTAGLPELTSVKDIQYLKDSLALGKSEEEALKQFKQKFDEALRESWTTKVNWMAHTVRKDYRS
T2 sequence (P42336 whole entry): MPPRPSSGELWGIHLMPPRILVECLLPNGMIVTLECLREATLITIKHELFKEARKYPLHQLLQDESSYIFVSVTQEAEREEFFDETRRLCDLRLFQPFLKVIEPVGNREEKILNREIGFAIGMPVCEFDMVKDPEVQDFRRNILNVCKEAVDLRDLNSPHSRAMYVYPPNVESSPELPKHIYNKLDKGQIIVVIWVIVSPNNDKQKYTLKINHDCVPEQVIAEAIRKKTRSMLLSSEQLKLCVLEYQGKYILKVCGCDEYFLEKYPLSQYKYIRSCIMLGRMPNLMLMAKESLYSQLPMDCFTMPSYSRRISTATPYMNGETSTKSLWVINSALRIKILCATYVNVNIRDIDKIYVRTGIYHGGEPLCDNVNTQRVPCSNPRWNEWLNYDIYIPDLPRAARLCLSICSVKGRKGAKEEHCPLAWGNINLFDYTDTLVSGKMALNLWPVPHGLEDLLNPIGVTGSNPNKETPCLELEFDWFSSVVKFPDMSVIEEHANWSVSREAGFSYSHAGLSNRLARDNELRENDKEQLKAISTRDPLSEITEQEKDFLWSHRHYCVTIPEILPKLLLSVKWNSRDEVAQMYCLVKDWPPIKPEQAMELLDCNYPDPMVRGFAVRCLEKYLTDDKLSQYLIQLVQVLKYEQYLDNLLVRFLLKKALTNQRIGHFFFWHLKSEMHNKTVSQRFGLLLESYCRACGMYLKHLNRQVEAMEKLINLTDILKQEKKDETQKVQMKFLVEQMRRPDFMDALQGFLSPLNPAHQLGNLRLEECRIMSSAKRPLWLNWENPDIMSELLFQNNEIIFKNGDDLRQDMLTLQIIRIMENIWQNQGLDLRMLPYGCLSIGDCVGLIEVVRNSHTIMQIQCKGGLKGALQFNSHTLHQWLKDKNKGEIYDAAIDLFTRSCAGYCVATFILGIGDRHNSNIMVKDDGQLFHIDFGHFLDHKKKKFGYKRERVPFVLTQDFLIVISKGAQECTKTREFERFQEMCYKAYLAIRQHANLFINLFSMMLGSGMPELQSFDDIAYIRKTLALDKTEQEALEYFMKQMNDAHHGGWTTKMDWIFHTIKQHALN
T3 sequence (P48736 whole entry): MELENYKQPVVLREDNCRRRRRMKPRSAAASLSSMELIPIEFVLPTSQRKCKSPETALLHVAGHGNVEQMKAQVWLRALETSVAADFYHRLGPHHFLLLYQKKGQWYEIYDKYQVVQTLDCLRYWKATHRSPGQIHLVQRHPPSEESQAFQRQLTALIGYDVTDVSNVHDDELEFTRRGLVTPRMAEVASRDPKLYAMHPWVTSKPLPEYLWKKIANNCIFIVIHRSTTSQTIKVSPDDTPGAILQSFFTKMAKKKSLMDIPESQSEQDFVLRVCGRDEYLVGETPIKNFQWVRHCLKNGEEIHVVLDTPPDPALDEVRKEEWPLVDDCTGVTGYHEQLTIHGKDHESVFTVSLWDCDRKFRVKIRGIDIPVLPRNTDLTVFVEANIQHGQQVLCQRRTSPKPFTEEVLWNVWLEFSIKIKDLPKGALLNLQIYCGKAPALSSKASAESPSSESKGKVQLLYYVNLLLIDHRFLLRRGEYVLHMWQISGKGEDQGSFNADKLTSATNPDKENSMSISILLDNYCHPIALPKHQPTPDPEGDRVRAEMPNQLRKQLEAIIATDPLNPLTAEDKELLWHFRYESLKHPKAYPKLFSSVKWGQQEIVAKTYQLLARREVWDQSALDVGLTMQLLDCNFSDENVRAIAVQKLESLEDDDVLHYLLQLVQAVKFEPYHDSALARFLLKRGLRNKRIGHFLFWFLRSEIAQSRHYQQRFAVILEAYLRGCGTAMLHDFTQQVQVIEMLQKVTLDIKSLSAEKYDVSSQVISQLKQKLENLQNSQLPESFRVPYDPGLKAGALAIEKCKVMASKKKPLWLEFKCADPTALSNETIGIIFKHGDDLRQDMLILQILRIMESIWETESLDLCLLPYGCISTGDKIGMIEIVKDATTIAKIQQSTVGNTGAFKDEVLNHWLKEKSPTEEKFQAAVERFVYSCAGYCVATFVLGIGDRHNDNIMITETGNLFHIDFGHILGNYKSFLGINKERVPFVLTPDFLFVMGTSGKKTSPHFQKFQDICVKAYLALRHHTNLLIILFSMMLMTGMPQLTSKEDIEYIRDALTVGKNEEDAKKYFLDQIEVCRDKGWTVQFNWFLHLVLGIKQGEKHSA

SMILES	IC50 ([1]; Homo sapiens, PC-3, 1 h) [nM]	Kd (kinase enzymes [2]) [nM]	Kd (kinase enzymes [3]) [nM]	Kd (kinase enzymes [4]) [nM]	Kd (PI3Kδ) [nM]	Kd (PI3Kβ) [nM]	IC50 ([5]; Homo sapiens, PC-3, 1 h) [nM]	melting point [°C]	IC50 [1] [nM]	IC50 [5] [nM]
Cc1c(CNc2cc(C(=O)N(C)C)cc3ncc(N4CCOCC4)nc23)cccc1C(F)(F)F [Compound 399]	> 513	> 30200	2820	9330	5250	45	> 513	202		
CC(Nc1ccc(F)c(F)c1)c1cc(C(=O)N(C)C2CCNC2)cc2ncc(N3CCOCC3)nc12 (centres unmarked) [Compound 323b]		> 30200	3800	3090	182	1		130	209	100
CC(Oc1ccc(F)c(F)c1)c1cc(C(=O)N2CCN3CCC[C@H]3C2)cc2ncc(N3CCOCC3)nc12 (single isomer, unassigned) [Compound 369b]		> 30200	> 30200	> 30200	28800	3310		147	> 513	> 513
COC(=O)c1cc(C(C)N(C)c2cccc(F)c2)c2nc(N3CCOCC3)cnc2c1 (centres unmarked) [Compound 97]	> 513	> 30200	19100	> 30200	> 30200	214	> 513	146		
O=Cc1cc(C2CCCN2c2cc(F)cc(F)c2)c2nc(N3CCOCC3)cnc2c1 (centres unmarked) [Compound 250]	5	14500	339	955	219	1	6	120		
CC(C)NCCNC(=O)c1cc(C(C)Nc2cc(F)cc(F)c2)c2nc(N3CCOCC3)cnc2c1 (single isomer, unassigned) [Compound 212]		13800	7090	5070	3290	12		204	398	328
CN(C)C(=O)c1cc(C2CCCN2c2ccccc2)c2nc(N3CCOCC3)cnc2c1 (centres unmarked) [Compound 27]	22	> 30200	269	1620	58	1	14	80		
CC(Nc1cccc(C#N)c1)c1cc(C(=O)N(C)C)cc2ncc(N3CCOCC3)nc12 (centres unmarked) [Compound 155]	437	> 30200	2140	6610	759	6	339	186		
CN(C)C(=O)c1cc(C(CO)N(C)c2cccc(F)c2)c2nc(N3CCOCC3)cnc2c1 (centres unmarked) [Compound 301]	> 513	15100	5370	1510	3240	43	427	315		
CC(Nc1cc(Cl)cc(Cl)c1)c1cc(C(=O)N2CCOCC2)cc2ncc(N3CCOCC3)nc12 (centres unmarked) [Compound 133]	59	> 30200	5750	26300	263	3	32	80		
Cc1cc(C2CCCN2c2cc(F)cc(F)c2)c2nc(N3CCOCC3)cnc2c1 (single isomer, unassigned) [Compound 107]		> 30200	> 30200	> 30200	23400	363		80 to 90	> 513	> 513
CC(C)NCCNC(=O)c1cc(C(C)Nc2cccc(F)c2)c2nc(N3CCOCC3)cnc2c1 (single isomer, unassigned) [Compound 227]		> 30200	1780	3800	339	1		80	27	20
CNCCNC(=O)c1cc(C(C)Nc2cc(F)ccc2F)c2nc(N3CCOCC3)cnc2c1 (centres unmarked) [Compound 132]	52	11500	832	2190	115	0.5	37	80		
CC(Nc1cc(F)c(F)c(F)c1)c1cc(C(=O)NCC(C)(C)O)cc2ncc(N3CCOCC3)nc12 (centres unmarked) [Compound 292]	437	> 30200	6610	27500	1700	16	234	80		
OCCCNCc1cc(C2CCCN2c2cc(F)cc(F)c2)c2nc(N3CCOCC3)cnc2c1 (single isomer, unassigned) [Compound 102]	22	> 30200	245	398	31	0.2	23	80		
CNCCOCCN(C)C(=O)c1cc(C(C)Nc2cc(F)c(F)c(F)c2)c2nc(N3CCOCC3)cnc2c1 (single isomer, unassigned) [Compound 315a]	195	> 30200	> 30200	> 30200	> 30200	2240		86		> 20.4
CC(C)N1CCN(C(=O)c2cc(C3CCCN3c3cc(F)cc(F)c3)c3nc(N4CCOCC4)cnc3c2)CC1 (centres unmarked) [Compound 69]	117	> 30200	891	3090	195	3	~32	80		
CC(Nc1cc(F)cc(F)c1)c1cc(CNCC(F)F)cc2ncc(N3CCOCC3)nc12 (centres unmarked) [Compound 164]	145	> 30200	2400	13800	1100	4	71	116		
O=C(c1cc(C2CCCN2c2cc(F)cc(F)c2)c2nc(N3CCOCC3)cnc2c1)N1CCS(=O)(=O)CC1 (single isomer, unassigned) [Compound 38]		> 30200	3	933	6	0.4		146	~0.8	1
Cc1cc(C)cc(NC(C)c2cc(C(=O)N3CCOCC3)cc3ncc(N4CCOCC4)nc23)c1 (centres unmarked) [Compound 126]	427	> 30200	6920	> 30200	1290	13	275	80		
CC(Nc1cc(F)cc(F)c1)c1cc(C(=O)NC2CN(CC(F)(F)F)C2)cc2ncc(N3CCOCC3)nc12 (centres unmarked) [Compound 238]	219	> 30200	5010	12300	2210	8	157	110		
CC1CN(C(=O)c2cc(C(C)Nc3ccc(F)c(F)c3)c3nc(N4CCOCC4)cnc3c2)CC(C)N1 (centres unmarked) [Compound 357b]	30	> 30200	933	8130	158	1	14	120		
